SMILES strings stand for the structures.

For this test, the target named is T1, GPR40 of human origin (Homo sapiens, UniProt O14842).
T1 construct: expressed in transfected cells
T1 sequence (O14842 whole entry): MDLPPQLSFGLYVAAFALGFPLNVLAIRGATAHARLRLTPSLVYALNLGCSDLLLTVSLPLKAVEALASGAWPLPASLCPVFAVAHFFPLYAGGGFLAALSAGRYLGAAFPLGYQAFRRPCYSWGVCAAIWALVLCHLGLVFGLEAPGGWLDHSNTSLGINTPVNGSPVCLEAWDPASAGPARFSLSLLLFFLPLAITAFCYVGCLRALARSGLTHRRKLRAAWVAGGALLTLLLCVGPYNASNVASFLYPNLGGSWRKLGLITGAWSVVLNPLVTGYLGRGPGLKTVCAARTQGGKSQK
Nature of the test: Agonist action on GPR40 of human origin (intracellular Ca2+ change). The format is cell-based. The settings on record: CHO cell strain stably expressing GPR40 of human origin; change in Ca2+ concentration, fluorescent calcium indicator. Put shortly: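 CHO cells stably expressing human GPR40, cultured overnight, then loaded 1 h with Calcium 4 dye plus probenecid in HEPES-buffered HBSS. Compound added in 20 mM HEPES-HBSS; intracellular Ca2+ change read by fluorescence, EC50 from dose-response of fluorescence change.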
Consider `Cc1cccc(Oc2cccc3c2OCC3Oc2ccc(-c3cc(O)n[s+]3[O-])cc2)c1` (centres unmarked) [Example 155, 3-hydroxy-5-(4-((7-(m-tolyloxy)-2,3-dihydrobenzofuran-3-yl)oxy)phenyl)isothiazole 1-oxide], for which the EC50 was < 300 nM.

For `CC(C)(O)CCOc1cccc(Oc2cccc3c2CC[C@H]3Oc2ccc(-c3cc(O)n[s+]3[O-])cc2)c1` (stereo partly drawn) [Example 112, 3-hydroxy-5-(4-(((R)-4-(3-(3-hydroxy-3-methylbutoxy)phenoxy)-2,3-dihydro-1H-inden-1-yl)oxy)phenyl)isothiazole 1-oxide], the EC50 is < 300 nM.

For `[O-][s+]1nc(O)cc1-c1ccc(O[C@@H]2CCc3c(-c4ccsc4)cccc32)cc1` (stereo partly drawn) [Example 82, 3-hydroxy-5-(4-(((R)-4-(thiophen-3-yl)-2,3-dihydro-1H-inden-1-yl)oxy)phenyl)isothiazole 1-oxide], the concentration for a half-maximal effect (EC50) was < 300 nM.

`Cc1ccc(-c2cccc3c2CC[C@H]3Oc2ccc(-c3cc(O)n[s+]3[O-])cc2)c2ccccc12` (stereo partly drawn) [Example 50, 5-(4-(((R)-4-(4-methylnaphthalen-1-yl)-2,3-dihydro-1H-inden-1-yl)oxy)phenyl)-3-hydroxyisothiazole 1-oxide]: the EC50 lay within 300 to 3000 nM.

Turning to `CCOc1ccc(-c2cccc3c2CC[C@H]3Oc2ccc(-c3cc(O)n[s+]3[O-])cc2)cc1` (stereo partly drawn) [Example 7, 5-(4-(((R)-4-(4-ethoxyphenyl)-2,3-dihydro-1H-inden-1-yl)oxy)phenyl)-3-hydroxyisothiazole 1-oxide], the EC50 is 300 to 3000 nM.

With `[O-][s+]1nc(O)cc1-c1ccc(O[C@@H]2CCc3c(-c4cccnc4Cl)cccc32)cc1` (single isomer, unassigned) [Example 75], the EC50 was < 300 nM.

With `[O-][s+]1nc(O)cc1-c1ccc(O[C@@H]2CCc3c(-c4cc(F)ccc4F)cccc32)cc1` (stereo partly drawn) [Example 46, 5-(4-(((R)-4-(2,5-difluorophenyl)-2,3-dihydro-1H-inden-1-yl)oxy)phenyl)-3-hydroxyisothiazole 1-oxide], the concentration for a half-maximal effect (EC50) is < 300 nM.

In the case of `Cc1cccc(Oc2cccc3c2CC[C@H]3Oc2ccc(-c3cc(O)n[s+]3[O-])cc2)n1` (stereo partly drawn) [Example 130, 3-hydroxy-5-(4-(((R)-4-((6-methylpyridin-2-yl)oxy)-2,3-dihydro-1H-inden-1-yl)oxy)phenyl)isothiazole 1-oxide], the concentration giving a half-maximal response (EC50) was < 300 nM.

With `COc1cc(Oc2cccc3c2CC[C@H]3Oc2ccc(-c3cc(O)n[s+]3[O-])cc2)ccn1` (stereo partly drawn) [Example 114, 3-hydroxy-5-(4-(((R)-4-((2-methoxypyridin-4-yl)oxy)-2,3-dihydro-1H-inden-1-yl)oxy)phenyl)isothiazole 1-oxide], the EC50 is < 300 nM.

As for `Cc1nc(OCCC(C)(C)O)ccc1Oc1cccc2c1OCC2Oc1ccc(-c2cc(O)n[s+]2[O-])cc1` (single isomer, unassigned) [Example 153-a, 3-hydroxy-5-(4-((7-((6-(3-hydroxy-3-methylbutoxy)-2-methylpyridin-3-yl)oxy)-2,3-dihydrobenzofuran-3-yl)oxy)phenyl)isothiazole 1-oxide], the EC50 was < 300 nM.

Turning to `[O-][s+]1nc(O)cc1-c1ccc(O[C@@H]2CCc3c(-c4ccc(OCc5ccccc5)c(F)c4)cccc32)cc1` (stereo partly drawn) [Example 57, 5-(4-(((R)-4-(4-benzyloxy-3-fluorophenyl)-2,3-dihydro-1H-inden-1-yl)oxy)phenyl)-3-hydroxyisothiazole 1-oxide], the concentration for a half-maximal effect (EC50) lay within 300 to 3000 nM.

`[O-][s+]1nc(O)cc1-c1ccc(OCc2ccc(CN3CCC4(C=Cc5ccccc54)CC3)cc2)cc1` (centres unmarked) [Example 123, 3-hydroxy-5-(4-((4-(spiro[inden-1,4′-piperidin]-1′-ylmethyl)benzyl)oxy)phenyl)isothiazole 1-oxide]: the EC50 is 300 to 3000 nM.

Consider `COc1cccc(Oc2cccc3c2CC[C@H]3Oc2ccc(-c3cc(O)n[s+]3[O-])cc2)c1` (stereo partly drawn) [Example 91, 3-hydroxy-5-(4-(((R)-4-(3-methoxyphenoxy)-2,3-dihydro-1H-inden-1-yl)oxy)phenyl)isothiazole 1-oxide], for which the EC50 is < 300 nM.

Turning to `CS(=O)(=O)c1ccc(Oc2cccc3c2CC[C@H]3Oc2ccc(-c3cc(O)n[s+]3[O-])cc2)cc1` (stereo partly drawn) [Example 107, 3-hydroxy-5-(4-(((R)-4-(4-(methylsulfonyl)phenoxy)-2,3-dihydro-1H-inden-1-yl)oxy)phenyl)isothiazole 1-oxide], the EC50 was < 300 nM.

Take `[O-][s+]1nc(O)cc1-c1ccc(O[C@@H]2CCc3c(-c4ccc(Cl)nc4)cccc32)cc1` (stereo partly drawn) [Example 74, 5-(4-(((R)-4-(6-chloropyridin-3-yl)-2,3-dihydro-1H-inden-1-yl)oxy)phenyl)-3-hydroxyisothiazole 1-oxide]: the EC50 was < 300 nM.

As to `Cc1cc(OCc2ccccc2)ccc1-c1cccc2c1CC[C@H]2Oc1ccc(-c2cc(O)n[s+]2[O-])cc1` (stereo partly drawn) [Example 47, 5-(4-(((R)-4-(4-benzyloxy-2-methylphenyl)-2,3-dihydro-1H-inden-1-yl)oxy)phenyl)-3-hydroxyisothiazole 1-oxide], the EC50 was < 300 nM.

Regarding `Cc1cc(F)ccc1-c1cccc2c1CC[C@H]2Oc1ccc(-c2cc(O)n[s+]2[O-])cc1` (stereo partly drawn) [Example 39, 5-(4-(((R)-4-(4-fluoro-2-methylphenyl)-2,3-dihydro-1H-inden-1-yl)oxy)phenyl)-3-hydroxyisothiazole 1-oxide], the EC50 is < 300 nM.

In the case of `[O-][s+]1nc(O)cc1-c1ccc(OCCc2ccc(Oc3ccccc3)cc2)cc1` (centres unmarked) [Example 162, 3-hydroxy-5-(4-(4-phenoxyphenethoxy)phenyl)isothiazole 1-oxide], the EC50 was < 300 nM.

Consider `C=Cc1ccc(-c2cccc3c2CC[C@H]3Oc2ccc(-c3cc(O)n[s+]3[O-])cc2)cc1` (stereo partly drawn) [Example 25, 5-(4-(((R)-4-(4-vinylphenyl)-2,3-dihydro-1H-inden-1-yl)oxy)phenyl)-3-hydroxyisothiazole 1-oxide], for which the EC50 is 300 to 3000 nM.

Consider `Cc1ccc(-c2cccc3c2CC[C@H]3Oc2ccc(-c3cc(O)n[s+]3[O-])cc2)c(Cl)c1` (stereo partly drawn) [Example 43, 5-(4-(((R)-4-(2-chloro-4-methylphenyl)-2,3-dihydro-1H-inden-1-yl)oxy)phenyl)-3-hydroxyisothiazole 1-oxide], for which the EC50 was < 300 nM.

Regarding `[O-][s+]1nc(O)cc1-c1ccc(O[C@@H]2CCc3c(-c4cc(F)cc(F)c4)cccc32)cc1` (stereo partly drawn) [Example 12, 5-(4-(((R)-4-(3,5-difluorophenyl)-2,3-dihydro-1H-inden-1-yl)oxy)phenyl)-3-hydroxyisothiazole 1-oxide], the concentration giving a half-maximal response (EC50) was < 300 nM.

As for `COc1cncc(Oc2cccc3c2CC[C@H]3Oc2ccc(-c3cc(O)n[s+]3[O-])cc2)c1` (stereo partly drawn) [Example 127, 3-hydroxy-5-(4-(((R)-4-((3-methoxypyridin-5-yl)oxy)-2,3-dihydro-1H-inden-1-yl)oxy)phenyl)isothiazole 1-oxide], the EC50 is < 300 nM.

As for `NC(=O)c1ccc(Oc2cccc3c2CC[C@H]3Oc2ccc(-c3cc(O)n[s+]3[O-])cc2)cc1` (stereo partly drawn) [Example 129, 4-(((1R)-1-(4-(3-hydroxy-1-oxidoisothiazol-5-yl)phenoxy)-2,3-dihydro-1H-inden-4-yl)oxy)benzamide], the EC50 was < 300 nM.

`[O-][s+]1nc(O)cc1-c1ccc(O[C@@H]2CCc3c(Oc4ccccc4)cccc32)cc1` (stereo partly drawn) [Example 90, 3-hydroxy-5-(4-(((R)-4-phenoxy-2,3-dihydro-1H-inden-1-yl)oxy)phenyl)isothiazole 1-oxide]: the EC50 is < 300 nM.

For the molecule `[O-][s+]1nc(O)cc1-c1ccc(O[C@@H]2CCc3c(-c4ccc(Cl)s4)cccc32)cc1` (stereo partly drawn) [Example 81, 5-(4-(((R)-4-(5-chlorothiophen-2-yl)-2,3-dihydro-1H-inden-1-yl)oxy)phenyl)-3-hydroxyisothiazole 1-oxide], the 50% effective concentration (EC50) was < 300 nM.

Take `N#Cc1ccc(Oc2cccc3c2CC[C@H]3Oc2ccc(-c3cc(O)n[s+]3[O-])cc2)cc1N1CCOC1=O` (stereo partly drawn) [Example 131, 4-(((R)-1-(4-(3-hydroxy-1-oxidoisothiazol-5-yl)phenoxy)-2,3-dihydro-1H-inden-4-yl)oxy)-2-(2-oxooxazolidin-3-yl)benzonitrile]: the EC50 is < 300 nM.

Take `CC(C)(O)CCOc1ccc(Oc2cccc3c2CC[C@H]3Oc2ccc(-c3cc(O)n[s+]3[O-])cc2)cn1` (stereo partly drawn) [Example 97, 3-hydroxy-5-(4-(((R)-4-((6-(3-hydroxy-3-methylbutoxy)pyridin-3-yl)oxy)-2,3-dihydro-1H-inden-1-yl)oxy)phenyl)isothiazole 1-oxide]: the EC50 was < 300 nM.

In the case of `[O-][s+]1nc(O)cc1-c1ccc(O[C@@H]2CCc3c(-c4cc(C(F)(F)F)ccc4F)cccc32)cc1` (stereo partly drawn) [Example 67, 5-(4-(((R)-4-(2-fluoro-5-trifluoromethylphenyl)-2,3-dihydro-1H-inden-1-yl)oxy)phenyl)-3-hydroxyisothiazole 1-oxide], the EC50 is < 300 nM.

For the molecule `CC(C)Cc1ccc(-c2cccc3c2CC[C@H]3Oc2ccc(-c3cc(O)n[s+]3[O-])cc2)cc1` (stereo partly drawn) [Example 28, 5-(4-(((R)-4-(4-isobutylphenyl)-2,3-dihydro-1H-inden-1-yl)oxy)phenyl)-3-hydroxyisothiazole 1-oxide], the EC50 was < 300 nM.

For the molecule `N#Cc1cccc(Oc2cccc3c2CC[C@H]3Oc2ccc(-c3cc(O)n[s+]3[O-])cc2)c1` (stereo partly drawn) [Example 86, 3-(((1R)-1-(4-(3-hydroxy-1-oxidoisothiazol-5-yl)phenoxy)-2,3-dihydro-1H-inden-4-yl)oxy)benzonitrile], the EC50 is < 300 nM.

For the molecule `[O-][s+]1nc(O)cc1-c1ccc(O[C@@H]2CCc3c(Oc4ccsc4)cccc32)cc1` (stereo partly drawn) [Example 111, 3-hydroxy-5-(4-(((R)-4-(thiophen-3-yloxy)-2,3-dihydro-1H-inden-1-yl)oxy)phenyl)isothiazole 1-oxide], the EC50 was < 300 nM.

For the molecule `[O-][s+]1nc(O)cc1-c1ccc(OC2COc3c(Oc4ccccc4)cccc32)cc1` (single isomer, unassigned) [Example 145-a, 3-hydroxy-5-(4-((7-phenoxy-2,3-dihydrobenzofuran-3-yl)oxy)phenyl)isothiazole 1-oxide], the EC50 was < 300 nM.
